Experimental data from ChEMBL document CHEMBL5518181, “Studies of antibacterial activity (in vitro and in vivo) and mode of action for des-acyl tridecaptins (DATs)” (Eur J Med Chem, 2024).
In brackets after ≈: the same amount, converted by molar mass. Activity calls are given as the source filed them. No cut-off for these calls is given here.

Legend:
[1] = test system: Klebsiella pneumoniae; assay: Antibacterial activity against Klebsiella pneumoniae ATCC 43816 assessed as inhibition of bacterial growth incubated for 18 hrs; type: functional; conditions: read-out: MIC100
[2] = test system: Salmonella typhimurium; assay: Antibacterial activity against Salmonella typhimurium ATCC 13311 assessed as inhibition of bacterial growth incubated for 18 hrs; type: functional, Salmonella enterica subsp. enterica serovar Typhimurium; conditions: Salmonella enterica, read-out: MIC100
[3] = test system: Serratia marcescens; assay: Antibacterial activity against intrinsically colistin resistant Serratia marcescens ATCC 13880 assessed as inhibition of bacterial growth incubated for 18 hrs; type: functional; conditions: read-out: MIC100
[4] = test system: Escherichia coli; assay: Antibacterial activity against Escherichia coli ATCC 25922 harboring tolC knock-out assessed as inhibition of bacterial growth incubated for 18 hrs; type: functional; conditions: read-out: MIC100
[5] = Drug localization in cytoplasm of Escherichia coli ATCC 25922 at 10 uM incubated for 10 mins by LC-MS/MS analysis; type: ADME, subcellular
[6] = test system: Escherichia coli; assay: Antibacterial activity against Escherichia coli ATCC 25922 assessed as inhibition of bacterial growth incubated for 18 hrs in presence of 150 mM NaCl; type: functional, organism-based
[7] = Hepatotoxicity in cryopreserved rat primary hepatocytes; type: toxicity, cell-based, Hepatocyte
[8] = AUClast in Swiss mouse lung at 10 mg/kg, iv administered as single bolus dose and measured upto 24 hrs by LC-MS/MS analysis; type: ADME, organism-based
[9] = Hydrophobicity of compound assessed as %MeCN at peak elution by RP-HPLC analysis; type: physicochemical
[10] = Toxicity in naive mouse at 5 to 15 mg/kg, iv administered as single dose every 4 hrs for 24 hrs; type: organism-based; conditions: in vivo, dose 5-15 mg/kg
[11] = Chemical stability of compound at pH 7.4; type: physicochemical; conditions: buffer
[12] = Chemical stability of compound in glutathione; type: physicochemical
[13] = molecular target: Cytochrome P450 3A4 (Homo sapiens, UniProt P08684); assay: Inhibition of CYP3A4 (unknown origin); type: ADME
[14] = test system: Escherichia coli; assay: Antibacterial activity against Escherichia coli ATCC 35218 infected in Swiss albino mouse septicemia model assessed as log10 reduction in bacterial burden below stasis in spleen at 20 mg/kg, iv administered twice every 2 hrs and measured after 5 hrs; type: functional
[15] = test system: Klebsiella pneumoniae; assay: Antibacterial activity against Klebsiella pneumoniae ATCC 43816 infected in mouse urinary tract infection model assessed as reduction in bacterial burden in kidney at <10 mg/kg, iv administered every 4 hrs and measured after 26 hrs; type: functional, organism-based
[16] = molecular target: T1, Cytochrome P450 2B6 (Homo sapiens, UniProt P20813); assay: Induction of CYP2B6 (unknown origin); type: ADME
T1 sequence (P20813 whole entry): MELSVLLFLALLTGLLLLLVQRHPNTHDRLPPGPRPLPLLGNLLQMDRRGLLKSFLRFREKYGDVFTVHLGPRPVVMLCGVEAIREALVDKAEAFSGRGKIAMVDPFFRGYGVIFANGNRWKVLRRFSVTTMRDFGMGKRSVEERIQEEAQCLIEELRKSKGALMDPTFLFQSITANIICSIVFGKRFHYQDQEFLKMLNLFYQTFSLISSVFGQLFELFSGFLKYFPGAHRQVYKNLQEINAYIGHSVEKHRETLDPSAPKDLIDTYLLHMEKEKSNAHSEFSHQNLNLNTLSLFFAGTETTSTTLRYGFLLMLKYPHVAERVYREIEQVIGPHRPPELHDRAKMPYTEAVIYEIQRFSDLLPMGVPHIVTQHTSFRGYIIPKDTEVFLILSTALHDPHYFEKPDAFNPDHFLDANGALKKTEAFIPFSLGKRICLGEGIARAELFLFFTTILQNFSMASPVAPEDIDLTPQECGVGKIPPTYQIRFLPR

Cytochrome P450 3A4, sequence (P08684 whole entry): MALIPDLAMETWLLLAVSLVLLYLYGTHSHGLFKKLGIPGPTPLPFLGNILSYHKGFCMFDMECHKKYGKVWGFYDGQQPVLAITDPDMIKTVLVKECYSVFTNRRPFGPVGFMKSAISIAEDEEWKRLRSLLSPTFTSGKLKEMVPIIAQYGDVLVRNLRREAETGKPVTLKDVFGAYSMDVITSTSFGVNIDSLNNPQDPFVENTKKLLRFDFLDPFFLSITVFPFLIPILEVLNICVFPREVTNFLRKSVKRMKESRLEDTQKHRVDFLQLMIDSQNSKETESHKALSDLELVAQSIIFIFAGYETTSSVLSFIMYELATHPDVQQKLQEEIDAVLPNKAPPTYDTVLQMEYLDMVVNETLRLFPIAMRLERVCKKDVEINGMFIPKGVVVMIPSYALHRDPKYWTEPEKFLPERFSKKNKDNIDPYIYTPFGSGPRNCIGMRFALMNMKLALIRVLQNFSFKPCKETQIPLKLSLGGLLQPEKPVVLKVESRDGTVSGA

## CC[C@H](C)[C@@H](NC(=O)[C@@H](NC(=O)[C@H](CCC(=O)O)NC(=O)[C@H](Cc1ccccc1)NC(=O)[C@@H](CCN)NC(=O)[C@H](CCN)NC(=O)[C@H](CO)NC(=O)[C@@H](Cc1c[nH]c2ccccc12)NC(=O)[C@@H](CO)NC(=O)CNC(=O)[C@@H](CCN)NC(=O)[C@H](NC(=O)[C@H](C)N)C(C)C)C(C)C)C(=O)N[C@@H](C)C(=O)O
[1]
  MIC: 8 µg/mL (≈ 5.46 µM)
[2]
  MIC: 16 µg/mL (≈ 10.9 µM)
[3]
  MIC: 8 µg/mL (≈ 5.46 µM)
[4]
  MIC: 1 µg/mL (≈ 0.682 µM)
[5]
  Drug uptake: Active
[6]
  Activity: Active
[7]
  Activity: Non-Toxic
[8]
  AUC(0-t) at 24 h: 12100 ng·h/mL
[9]
  MeCN percentage at peak elution: 40.3%
[10]
  Activity: Non-Toxic
[11]
  Stability: Stable
[12]
  Stability: Stable
[13]
  inhibition (INH): Not Active
[14]
  log(activity): 1
[15]
  Activity: Active
[16]
  Activity: Not Active
